One experiment addresses T1, Angiotensin II Receptor (Bos taurus, UniProt P25104).
T1 construct: Adrenal gland cortices from cattle (AGCs), which have been freshly removed and carefully freed from gland medulla; from tissue; host or cells: bovine adrenal gland cortex, partially purified membrane fractions
T1 sequence (P25104 1-359): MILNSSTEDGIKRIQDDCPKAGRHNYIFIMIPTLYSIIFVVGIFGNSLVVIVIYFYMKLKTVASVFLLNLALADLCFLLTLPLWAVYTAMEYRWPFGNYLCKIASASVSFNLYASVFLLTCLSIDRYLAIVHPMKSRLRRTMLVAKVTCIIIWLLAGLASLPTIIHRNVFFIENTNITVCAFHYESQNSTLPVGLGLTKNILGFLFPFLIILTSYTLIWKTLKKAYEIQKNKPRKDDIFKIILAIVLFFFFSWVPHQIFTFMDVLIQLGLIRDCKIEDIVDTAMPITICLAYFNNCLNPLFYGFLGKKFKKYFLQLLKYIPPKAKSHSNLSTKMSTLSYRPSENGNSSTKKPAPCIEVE
Put plainly: Interaction with the angiotensin II receptor in membrane fractions of the adrenal gland cortex (bovine), 3H-angiotensin II binding. The settings on record: 3H-angiotensin II (3-5 nM), bovine adrenal gland cortex membranes, 60 min at room temperature, pH 7.2. On the procedure: Adrenal gland cortices from cattle (AGCs), which have been freshly removed and carefully freed from gland medulla, are comminuted in sucrose solution (0.32M) with the aid of an Ultra-Turrax (Janke & Kunkel, Staufen i.B.) to give a coarse membrane homogenate and partially purified to give membrane fractions in two centrifugation steps.
The receptor binding investigations are carried out on partially purified membrane fractions of bovine AGC using radioactive angiotensin II in an assay volume of 0.25 ml, which specifically contains the partially purified membranes (50-80 μg), ^3 H-angiotensin II (3-5 nM), test buffer solution (50 mM Tris, pH 7.2, 5 mM MgCl2) and the substances to be investigated. After an incubation period of 60 min at room temperature, the unbound radioactivity of the samples is separated by means of moistened glass fiber filters (Whatman GF/C) and the bound radioactivity is measured […] in a scintillation cocktail after washing the protein with ice-cold buffer solution (50 mM Tris/HCl, pH 7.4, 5% PEG 6000). The raw data were analysed using computer programs to give Ki or IC50 values (Ki : IC50 values corrected for the radioactivity used; IC50 values: concentration at which the substance to be investigated causes a 50% inhibition of the specific binding of the radioligand).

Experiment [1] concerns contractions induced by AII (isolated rabbit aorta rings). Put plainly: Inhibition of the vascular contraction in isolated rabbit aorta rings in vitro, contractions induced by angiotensin II. Format: cell-based. The conditions noted are these: Oryctolagus cuniculus, based on the 3rd = submaximal agonist concentration, read-out: IC50 against contractions induced by: AII. On the procedure:
Rabbits of either sex are stunned by a blow to the back of the head and bled out, or in some cases anaesthetized with Nembutal (about 60-80 mg/kg i.v.) and sacrificed by opening the thorax. The thoracic aorta is removed, freed from adhering connective tissue, divided into ring segments 1.5 mm wide and individually transferred under an initial loading of about 3.5 g to 10 ml organ baths containing Krebs-Henseleit nutrient solution, aerated with 95% O2 /5% CO2 and temperature-controlled at 37° C., of the following composition: 119 mmol/l of NaCl; 2.5 mmol/l of CaCl2 ×2H2 O; 1.2 mmol/l of KH2 PO4; 10 mmol/l of glucose; 4.8 mmol/l of KCl; 1.4 mmol/l of MgSO4 ×7H2 O and 25 mmol/l of NaHCO3.
The contractions are determined isometrically by means of Statham UC2 cells via bridge amplifiers (ifd Mulheim or DSM Aalen) and digitalized by means of A/D converters (System 570, Keithley Munich) and assessed. The agonist dose response curves (DRCs) are plotted hourly. With each DRC, 3 or 4 individual concentrations are applied to the baths =at a 4 min interval. […]
The height of the 3rd DRC, in a normal case, is used as a reference quantity for the assessment of the test substance to be investigated in further runs, which substance is applied to the baths in the following DRCs in each case in increasing dose at the start of the incubation period. […]

The subject of another experiment is smooth muscle cells. The experiment in a line: Inhibition of the proliferation of smooth muscle cells (3H-thymidine incorporation). Format: cell-based. The settings on record: rat aortic smooth muscle cells, stimulated by 10% FCS. As for the experimental part: To determine the antiproliferative action of the compounds, smooth muscle cells are used which are obtained from the aortas of rats by the media explant technique [R. Ross, J. Cell. Biol. 50., 172, 1971]. The cells are inoculated into suitable culture dishes, as a rule 96-hole plates, and cultured at 37° C. in 5% CO2 for 2-3 days in medium 199 containing,7.5% FCS and 7.59% NCS, 2 mM L-glutamine and 15 mM HEPES, pH 7.4. The cells are then synchronized for 2-3 days by withdrawal of serum and then stimulated into growth using serum or other factors. Test compounds are simultaneously added. After 16-20 hours, 1 μCi ^3 H-thymidine is added and after a further 4 hours the incorporation of this substance into the TCA-precipitable DNA of the cells is determined. To determine the IC50 values, the active compound concentration is calculated which, on sequential dilution of the active compound, causes semi-maximum inhibition of the thymidine incorporation produced by 10% FCS.

The results in this text go back to patent US5395840A, “Heterocyclically substituted phenyl-cyclohexane-carboxylic acid derivatives” (Bayer Aktiengesellschaft, priority 1993, dated 1995).

Usually Ki stands for the equilibrium dissociation constant of an inhibitor or competing ligand from its target. High values mean lower affinity, low ones higher affinity. For orientation: IC50 means the concentration needed to halve the response being measured. At Angiotensin II Receptor, `CC(C)(C)OC(=O)[C@@H]1CCCC[C@H]1c1ccc(Cn2c(-c3ccccc3)nc3cccnc32)cc1` (relative stereo) [Example 9] gave a Ki of 47 nM. Also, the IC50 in experiment [1] stood at 260 nM.

As to `O=C(N[C@H](CO)c1ccccc1)C1CCCCC1c1ccc(Cn2c(C3CC3)nc3cccnc32)cc1` (single isomer, unassigned) [Example 16], the IC50 in the experiment with smooth muscle cells is 410 nM.

In turn, `O=C(N[C@H](CO)c1ccccc1)C1CCCCC1c1ccc(Cn2c(C3CC3)nc3cccnc32)cc1` (single isomer, unassigned) [Example 17] came in with an IC50 in the experiment on smooth muscle cells of 2 nM.

The compound `NC(=O)C(NC(=O)C1CCCCC1c1ccc(Cn2c(C3CC3)nc3cccnc32)cc1)c1ccccc1` (single isomer, unassigned) [Example 21] yielded an IC50 in the experiment on smooth muscle cells (Rattus norvegicus) of 7 nM.

On to `O=C(N[C@H](CO)c1ccccc1)C1CCCCC1c1ccc(Cn2c(-c3ccccc3)nc3cccnc32)cc1` (stereo partly shown) [Example 25], for which the IC50 with smooth muscle cells (Rattus norvegicus) was found to be 26 nM.

As to `CCCCc1nc2cc(Br)cnc2n1Cc1ccc(C2CCCCC2C(=O)N[C@H](CO)c2ccccc2)cc1` (stereo partly shown) [Example 29], in the experiment with smooth muscle cells (Rattus norvegicus), the IC50 was found to be 4 nM.

With `CCCCc1nc2ccccc2n1Cc1ccc(C2CCCCC2C(=O)N[C@H](CO)c2ccccc2)cc1` (stereo partly shown) [Example 30], the Ki on Angiotensin II Receptor was determined as 19 nM. Further, the IC50 in experiment [1] came to 220 nM.

For `CCCCc1nc2ccccc2n1Cc1ccc(C2CCCCC2C(=O)N[C@H](CO)c2ccccc2)cc1` (stereo partly shown) [Example 31], it took 3 nM to reach half-maximal inhibition in the experiment with smooth muscle cells (Rattus norvegicus) (IC50).
